From patent US10183037B2, “Nucleoside phosphoramidate prodrugs” (Gilead Pharmasset LLC, priority 2007, dated 2019)

System: HCV replicon RNA-containing Huh7 cells (clone A cells)
Assay: HCV replicon assay (replicon RNA by RT-PCR, ΔCt HCV, EC90)
Assay type: cell-based
Settings: Hepatitis C virus, Huh-7, 96 h; for log reduction at 50 µM: read-out: Log10 Reduction at 50 μM
Description: HCV replicon assay. HCV replicon RNA-containing Huh7 cells (clone A cells; Apath, LLC, St. Louis, Mo.) were kept at exponential growth in Dulbecco's modified Eagle's medium (high glucose) containing 10% fetal bovine serum, 4 mM L-glutamine and 1 mM sodium pyruvate, 1×nonessential amino acids, and G418 (1,000 μg/ml). Antiviral assays were performed in the same medium without G418. Cells were seeded in a 96-well plate at 1,500 cells per well, and test compounds were added immediately after seeding. Incubation time 4 days. At the end of the incubation step, total cellular RNA was isolated (RNeasy 96 kit; Qiagen). Replicon RNA and an internal control (TaqMan rRNA control reagents; Applied Biosystems) were amplified in a single-step multiplex RT-PCR protocol as recommended by the manufacturer. The HCV primers and probe were designed with Primer Express software (Applied Biosystems) and covered highly conserved 5′-untranslated region (UTR) sequences (sense, 5′-AGCCATGGCGTTAGTA(T)GAGTGT-3′ (SEQ ID NO: 1), and antisense, 5′-TTCCGCAGACCACTATGG-3′ (SEQ ID NO: 2); probe, 5′-FAM-[…]-TAMRA-3′ (SEQ ID NO: 3)).
To express the antiviral effectiveness of a compound, the threshold RT-PCR cycle of the test compound was subtracted from the average threshold RT-PCR cycle of the no-drug control (ΔCtHCV). A ΔCt of 3.3 equals a 1-log 10 reduction (equal to the 90% effective concentration [EC90]) in replicon RNA levels. The cytotoxicity of the test compound could also be expressed by calculating the ΔCtrRNA values. The ΔΔCt specificity parameter could then be introduced (ΔCtHCV−ΔCtrRNA), in which the levels of HCV RNA are normalized for the rRNA levels and calibrated against the no-drug control.

| Compound | EC90 [nM] | log reduction at 50 µM |
| --- | --- | --- |
| COC(=O)[C@H](C)NP(=O)(OC[C@H]1O[C@@H](n2ccc(=O)[nH]c2=O)[C@](C)(F)[C@@H]1O)Oc1ccccc1 (stereo partly drawn) [Example 5, 2′-Deoxy-2′-fluoro-2′-C-methyluridine 5′-(phenylmethoxy-alanyl phosphate)] | 3000 | 1.21 |
| COC(=O)[C@@H](NP(=O)(OC[C@H]1O[C@@H](n2ccc(=O)[nH]c2=O)[C@](C)(F)[C@@H]1O)Oc1ccccc1)C(C)C (stereo partly drawn) [Example 6, 2′-Deoxy-2′-fluoro-2′-C-methyluridine 5′-(phenylmethoxy-valyl phosphate)] |  | 0.45 |
| COC(=O)[C@@H](NP(=O)(OC[C@H]1O[C@@H](n2ccc(=O)[nH]c2=O)[C@](C)(F)[C@@H]1O)Oc1ccc(Br)cc1)C(C)C (stereo partly drawn) [Example 7, 2′-Deoxy-2′-fluoro-2′-C-methyluridine 5′-(4-bromophenylmethoxy-valyl phosphate)] |  | -0.31 |
| COC(=O)[C@H](C)NP(=O)(OC[C@H]1O[C@@H](n2ccc(=O)[nH]c2=O)[C@](C)(F)[C@@H]1O)Oc1ccc(Br)cc1 (stereo partly drawn) [Example 8, 2′-Deoxy-2′-fluoro-2′-C-methyluridine 5′-(4-bromophenylmethoxy-alanyl phosphate)] | 2110 | 1.48 |
| COC(=O)[C@H](C)NP(=O)(OC[C@H]1O[C@@H](n2ccc(N)nc2=O)[C@](C)(F)[C@@H]1O)Oc1ccccc1 (stereo partly drawn) [Example 10, 2′-Deoxy-2′-fluoro-2′-C-methylcytidine 5′-(phenylmethoxy-alanyl phosphate)] | 19200 | 1.25 |
| COC(=O)[C@@H](NP(=O)(OC[C@H]1O[C@@H](n2ccc(N)nc2=O)[C@](C)(F)[C@@H]1O)Oc1ccc(Br)cc1)C(C)C (stereo partly drawn) [Example 11, 2′-Deoxy-2′-fluoro-2′-C-methylcytidine 5′-(4-bromophenylmethoxy-valyl phosphate)] |  | 0.55 |
| COC(=O)[C@@H](NP(=O)(OC[C@H]1O[C@@H](n2ccc(N)nc2=O)[C@](C)(F)[C@@H]1O)Oc1ccccc1)C(C)C (stereo partly drawn) [Example 12, 2′-deoxy-2′-fluoro-2′-C-methylcytidine 5′-(phenylmethoxy-valyl phosphate)] |  | -0.31 |
| COC(=O)CNP(=O)(OC[C@H]1O[C@@H](n2ccc(=O)[nH]c2=O)[C@](C)(F)[C@@H]1O)Oc1ccccc1 (stereo partly drawn) [compound 15] | 860 |  |
| CC(C)OC(=O)[C@H](C)NP(=O)(OC[C@H]1O[C@@H](n2ccc(=O)[nH]c2=O)[C@](C)(F)[C@@H]1O)Oc1ccccc1 (stereo partly drawn) [compound 25] | 390 | 2.22 |
| CCOC(=O)[C@H](C)NP(=O)(OC[C@H]1O[C@@H](n2ccc(=O)[nH]c2=O)[C@](C)(F)[C@@H]1O)Oc1ccc(F)cc1 (stereo partly drawn) [compound 27] | 660 | 2.25 |
| CC(C)OC(=O)[C@H](C)NP(=O)(OC[C@H]1O[C@@H](n2ccc(=O)[nH]c2=O)[C@](C)(F)[C@@H]1O)Oc1ccc(F)cc1 (stereo partly drawn) [compound 28] | 750 | 2.16 |
| CC(C)OC(=O)[C@H](C)NP(=O)(OC[C@H]1O[C@@H](n2ccc(=O)[nH]c2=O)[C@](C)(F)[C@@H]1O)Oc1ccccc1Cl (stereo partly drawn) [compound 36] | 21900 | 1.64 |
| CC(C)OC(=O)[C@H](C)NP(=O)(OC[C@H]1O[C@@H](n2ccc(=O)[nH]c2=O)[C@](C)(F)[C@@H]1O)Oc1ccc(Cl)cc1 (stereo partly drawn) [compound 39] | 470 | 1.78 |
| C[C@H](NP(=O)(OC[C@H]1O[C@@H](n2ccc(=O)[nH]c2=O)[C@](C)(F)[C@@H]1O)Oc1ccccc1)C(=O)OC1CCCCC1 (stereo partly drawn) [compound 49] | 126 | 2.69 |
| CCCCOC(=O)[C@H](C)NP(=O)(OC[C@H]1O[C@@H](n2ccc(=O)[nH]c2=O)[C@](C)(F)[C@@H]1O)Oc1ccccc1Cl (stereo partly drawn) [compound 53] | < 300 | 1.33 |
| CC(C)OC(=O)[C@H](C)NP(=O)(OC[C@H]1O[C@@H](n2ccc(=O)[nH]c2=O)[C@](C)(F)[C@@H]1O)Oc1ccc(Br)cc1 (stereo partly drawn) [compound 54] | 570 | 1.55 |
| C[C@H](NP(=O)(OC[C@H]1O[C@@H](n2ccc(=O)[nH]c2=O)[C@](C)(F)[C@@H]1O)Oc1ccc(F)cc1)C(=O)OC1CCCCC1 (stereo partly drawn) [compound 55] | < 300 | 2.38 |
| COC(=O)[C@H](C)NP(=O)(OC[C@H]1O[C@@H](N2C=NC3C(NC4CCCC4)=NC(N)=NC32)[C@](C)(F)[C@@H]1O)Oc1ccccc1 (stereo partly drawn) [compound 69] | < 300 | 2.25 |
| COC(=O)[C@H](C)NP(=O)(OC[C@H]1O[C@@H](N2C=NC3C(N4CCC4)=NC(N)=NC32)[C@](C)(F)[C@@H]1O)Oc1ccccc1 (stereo partly drawn) [compound 70] | < 300 | 2.25 |
